Assay results taken from patent US5475136A, “Inhibitors of HIV protease useful for the treatment of AIDS” (Eli Lilly and Company, priority 1992, dated 1995).

Target: T1, HIV-1 protease (Human immunodeficiency virus type 1 group M subtype B, UniProt P04585)
T1 construct: host or cells: E. coli K12 L507/pHP10D
Test: biochemical
Settings: read-out: Fluorescence Assay IC50 (converted)
Experimental: Lyophils of E. coli K12 L507/pHP10D were obtained from the Northern Regional Research Laboratory, Peoria, Ill. 61604, under the accession number NRRL B-18560 (deposited Nov. 14, 1989).
A culture of E. coli K12 L507/pHP10D was grown to mid-log phase at 32° C. in LB media containing 12.5 μg/mL tetracycline. The cultivation temperature was quickly elevated to 40° C. to induce gene expression, and the cells were allowed to grow for 2.5 hours at this temperature before the culture was quickly chilled on ice. The cells were centrifuged and the cell pellet was resuspended in 20 mL 50 mmol MES buffer (pH 6.0) containing 1 mmol EDTA, 1 mmol DTT, 1 mmol PMSF and 10% glycerol ("Buffer A"). Cells were lysed by sonication using a Fischer Model 300 Dismembrator and a microtip probe. […] Res. Commun., 167, 554-560 (1990); the production of the pl peptide (SQNY) was measured.
The active fractions were combined, made 1.2M in ammonium sulfate, and applied to a 2.0×18 cm hexyl agarose column that had been equilibrated in Buffer A containing 1.2M ammonium sulfate. The sample was loaded at a flow rate of 1 mL/min at 4° C., washed with the equilibration buffer for 240 min (1 mL/min) and then eluted using a reverse linear gradient of 1.2-0M ammonium sulfate in Buffer A for 120 min at the same flow rate. The column was then washed isocratically in Buffer A for 120 min. […]

IC50	Structure (SMILES)
1.24 nM	CC(=O)N[C@@H](CC(N)=O)C(=O)N[C@@H](CSc1ccc2ccccc2c1)[C@H](O)Cc1ccccc1C(=O)NC(C)(C)C (relative stereo) [Example 1, [2'R-(2'R*,3'R*, 6'S*)]-N(t-butyl)-2-[2'-hydroxy-3'-naphth-2-ylthiomethyl-4',7'-diaza-5',8'-dioxo-6'-(2"-amino-2"-oxoethyl)]nonyl benzamide]
21.2 nM	CC(=O)N[C@@H](CC(N)=O)C(=O)N[C@@H](CSc1ccccc1)[C@H](O)Cc1ccccc1C(=O)NC(C)(C)C (relative stereo) [Example 2, [2'R-(2'R*,3'R*,6'S*)]-N(t-Butyl)-2-[2'-hydroxy-3'-phenylthiomethyl-4',7'-diaza-5',8'-dioxo-6'-(2"-amino-2"-oxoethyl)]nonyl benzamide]
